Measurements taken from ChEMBL document CHEMBL1667817, “Design, synthesis and biological evaluation of new arylpiperazine derivatives bearing a flavone moiety as α1-adrenoceptor antagonists” (Bioorg Med Chem Lett, 2011).

Molecular target: T1, Adrenergic receptor alpha-1 (Rattus norvegicus, UniProt P15823+P23944+P43140)
T1 sequence (P15823 whole entry): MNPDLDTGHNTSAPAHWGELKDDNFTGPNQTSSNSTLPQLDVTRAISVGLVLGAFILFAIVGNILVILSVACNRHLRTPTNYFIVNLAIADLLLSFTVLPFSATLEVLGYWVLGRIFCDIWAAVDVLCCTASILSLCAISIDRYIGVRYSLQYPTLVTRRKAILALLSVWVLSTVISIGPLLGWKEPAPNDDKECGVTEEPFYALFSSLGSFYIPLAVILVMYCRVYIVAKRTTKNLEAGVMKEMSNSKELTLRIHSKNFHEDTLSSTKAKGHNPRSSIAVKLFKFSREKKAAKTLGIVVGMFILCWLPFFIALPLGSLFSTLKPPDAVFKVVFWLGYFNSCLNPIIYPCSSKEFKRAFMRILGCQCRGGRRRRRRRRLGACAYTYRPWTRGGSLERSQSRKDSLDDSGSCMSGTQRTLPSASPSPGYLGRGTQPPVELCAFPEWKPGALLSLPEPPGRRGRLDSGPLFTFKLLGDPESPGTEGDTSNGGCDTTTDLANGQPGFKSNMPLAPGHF
T1 sequence (P23944 whole entry): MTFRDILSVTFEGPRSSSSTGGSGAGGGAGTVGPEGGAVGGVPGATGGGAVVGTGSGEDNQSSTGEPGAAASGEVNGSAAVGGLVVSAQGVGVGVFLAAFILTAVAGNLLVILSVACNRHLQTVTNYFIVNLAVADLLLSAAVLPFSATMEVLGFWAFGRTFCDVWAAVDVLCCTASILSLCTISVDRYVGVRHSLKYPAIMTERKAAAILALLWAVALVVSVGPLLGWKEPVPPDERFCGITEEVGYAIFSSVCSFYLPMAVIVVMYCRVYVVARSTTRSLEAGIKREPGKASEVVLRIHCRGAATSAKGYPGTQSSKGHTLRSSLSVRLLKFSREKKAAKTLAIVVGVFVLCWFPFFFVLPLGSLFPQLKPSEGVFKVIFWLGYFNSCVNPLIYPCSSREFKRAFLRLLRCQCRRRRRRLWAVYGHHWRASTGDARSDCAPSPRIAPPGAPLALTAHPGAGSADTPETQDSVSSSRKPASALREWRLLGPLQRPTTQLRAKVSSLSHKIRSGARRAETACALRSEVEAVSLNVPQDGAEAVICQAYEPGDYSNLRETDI
T1 sequence (P43140 whole entry): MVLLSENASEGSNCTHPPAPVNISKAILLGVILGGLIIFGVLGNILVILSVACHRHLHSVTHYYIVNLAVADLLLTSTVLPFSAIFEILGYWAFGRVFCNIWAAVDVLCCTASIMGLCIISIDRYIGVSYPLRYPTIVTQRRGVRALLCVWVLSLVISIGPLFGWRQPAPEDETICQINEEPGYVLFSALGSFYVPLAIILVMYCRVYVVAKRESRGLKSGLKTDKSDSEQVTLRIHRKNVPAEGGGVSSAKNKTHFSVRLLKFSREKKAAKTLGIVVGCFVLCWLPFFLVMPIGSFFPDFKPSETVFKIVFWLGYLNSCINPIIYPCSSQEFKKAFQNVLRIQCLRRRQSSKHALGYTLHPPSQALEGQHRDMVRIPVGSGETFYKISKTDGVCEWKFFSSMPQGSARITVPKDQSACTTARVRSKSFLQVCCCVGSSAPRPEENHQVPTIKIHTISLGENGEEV
Experiment: Antagonist activity at alpha1-adrenoceptor in rat anococcygeal muscle assessed as inhibition of phenylephrine-induced contraction
Format: functional

| pA2 | Compound |
| --- | --- |
| 8.333 | O=c1cc(-c2ccccc2)oc2cc(OCCCCN3CCN(c4ccccc4)CC3)ccc12 |
| 7.684 | Cc1ccc(N2CCN(CCCOc3ccc4c(=O)cc(-c5ccccc5)oc4c3)CC2)cc1 |
| 6.709 | Cc1ccc(N2CCN(CCCCOc3ccc4c(=O)cc(-c5ccccc5)oc4c3)CC2)cc1 |
| 7.383 | Cc1ccccc1N1CCN(CCOc2ccc3c(=O)cc(-c4ccccc4)oc3c2)CC1 |
| 8.579 | O=c1cc(-c2ccc(Cl)cc2)oc2cc(OCCN3CCN(c4ccccc4)CC3)ccc12 |
| 8.498 | Cc1ccc(N2CCN(CCCCOc3ccc4c(=O)cc(-c5ccc(Cl)cc5)oc4c3)CC2)cc1 |
| 6.897 | O=c1cc(-c2ccccc2)oc2cc(OCCBr)ccc12 |
| 6.409 | O=c1cc(-c2ccccc2)oc2cc(OCCCBr)ccc12 |
| 6.168 | O=c1cc(-c2ccc(Cl)cc2)oc2cc(OCCCBr)ccc12 |

Further lines, the compound ahead of its results:

| Compound | pA2 |
| --- | --- |
| O=c1cc(-c2ccc(Cl)cc2)oc2cc(O)ccc12 | 6.845 |
| O=c1cc(-c2ccccc2)oc2cc(OCCN3CCN(c4ccccc4)CC3)ccc12 | 8.526 |
| O=c1cc(-c2ccccc2)oc2cc(OCCCN3CCN(c4ccccc4)CC3)ccc12 | 8.177 |
| Cc1ccc(N2CCN(CCOc3ccc4c(=O)cc(-c5ccccc5)oc4c3)CC2)cc1 | 8.647 |
| Cc1ccccc1N1CCN(CCCOc2ccc3c(=O)cc(-c4ccccc4)oc3c2)CC1 | 6.93 |
| Cc1ccccc1N1CCN(CCCCOc2ccc3c(=O)cc(-c4ccccc4)oc3c2)CC1 | 7.71 |
| O=c1cc(-c2ccc(Cl)cc2)oc2cc(OCCCN3CCN(c4ccccc4)CC3)ccc12 | 8.072 |
| O=c1cc(-c2ccc(Cl)cc2)oc2cc(OCCCCN3CCN(c4ccccc4)CC3)ccc12 | 7.914 |
| Cc1ccc(N2CCN(CCOc3ccc4c(=O)cc(-c5ccc(Cl)cc5)oc4c3)CC2)cc1 | 8.93 |
| Cc1ccc(N2CCN(CCCOc3ccc4c(=O)cc(-c5ccc(Cl)cc5)oc4c3)CC2)cc1 | 8.088 |
| Cc1ccccc1N1CCN(CCOc2ccc3c(=O)cc(-c4ccc(Cl)cc4)oc3c2)CC1 | 8.207 |
| Cc1ccccc1N1CCN(CCCOc2ccc3c(=O)cc(-c4ccc(Cl)cc4)oc3c2)CC1 | 7.772 |
| Cc1ccccc1N1CCN(CCCCOc2ccc3c(=O)cc(-c4ccc(Cl)cc4)oc3c2)CC1 | 7.471 |
| O=c1cc(-c2ccc(Cl)cc2)oc2cc(OCCBr)ccc12 | 6.925 |
| O=c1cc(-c2ccccc2)oc2cc(OCCCCBr)ccc12 | 6.538 |
| O=c1cc(-c2ccc(Cl)cc2)oc2cc(OCCCCBr)ccc12 | 6.368 |
| O=c1cc(-c2ccccc2)oc2cc(O)ccc12 [7-HYDROXYFLAVONE] | 6.609 |
